Measured values: patent publication US9006262B2 (priority 2011, dated 2015)

Test system: C57BL/6 mouse line transplanted with B16-F10 melanoma cells
Details: in vivo

Compound | life-prolonging effect (survival rate / lifetime) | suppressive effect on body weight loss (percent change in body weight)
CN1CC[C@]23c4c5ccc(O)c4O[C@H]2[C@@H](O)C=C[C@H]3[C@H]1C5 [morphine, Morphine] | tendency to reduce the lifetime | tendency of further body weight loss
CN(C(=O)/C=C/c1ccoc1)[C@@H]1CC[C@@]2(O)[C@H]3Cc4ccc(O)c5c4[C@@]2(CCN3CC2CC2)[C@H]1O5.Cl [Compound 1, (−)-17-(cyclopropylmethyl)-3,14β-dihydroxy-4,5α-epoxy-6β-[N-methyl-trans-3-(3-furyl)acrylamido]morphinan hydrochloride] | statistically significant life-prolonging effect | statistically significant suppressive effect on body weight loss
